Publication PMC7958448, “Bepridil is potent against SARS-CoV-2 in vitro” (Proceedings of the National Academy of Sciences of the …, 2021)
Where two headings read alike, the source gives them in different places.

Assays:
[1] = system: SARS-CoV-2 in Vero E6 cells; assay: microbe, parasite or virus in culture; assay type: cell-based; conditions: Severe acute respiratory syndrome coronavirus 2, Vero C1008, 72 h; read-out: EC50 in inhibiting SARS-CoV-2
[2] = system: SARS-CoV-2 in Vero E6 cells; assay type: cell-based
[3] = system: SARS-CoV-2 in A549/ACE2 cells; assay type: cell-based; conditions: 6 repeats
[4] = system: SARS-CoV-2 in A549/ACE2 cells; assay: microbe, parasite or virus in culture; assay type: cell-based; conditions: Severe acute respiratory syndrome coronavirus 2, A549-ACE2, 96 h; read-out: EC50 in inhibiting SARS-CoV-2
[5] = system: Ebola virus; conditions: mouse, in vivo, 12 mg/kg; cited from earlier work
[6] = target: T1, SARS-CoV-2 main protease (Mpro) (Severe acute respiratory syndrome coronavirus 2, UniProt P0DTD1); conditions: 1 mM medicine, relative to control without small molecule
[7] = target: T1, SARS-CoV-2 main protease (Mpro); assay: biochemical
[8] = system: SARS-CoV-2 entry into mammalian cell hosts; conditions: cell-based study; read-out: EC50 in inhibiting the SARS-CoV-2 entry; cited from earlier work

CC(C)COCC(CN(Cc1ccccc1)c1ccccc1)N1CCCC1 (centres unmarked) [Bepridil]
EC50 [1]: 860 nM | SARS-CoV-2 induced CPE [2]: No CPE | SARS-CoV-2 induced CPE ([2]; Vero E6, bepridil 6.25 µM, 6 repeats): No CPE | SARS-CoV-2 induced CPE ([2]; Vero E6, bepridil 25 µM, 6 repeats): No CPE | SARS-CoV-2 induced CPE ([3]; A549/ACE2, bepridil 6.25 µM): No CPE | SARS-CoV-2 induced CPE ([3]; A549/ACE2, bepridil 12.5 µM): No CPE | SARS-CoV-2 induced CPE ([3]; A549/ACE2, bepridil 25 µM): No CPE | SARS-CoV-2 induced CPE ([3]; A549/ACE2, bepridil 50 µM): No CPE | EC50 [4]: 460 nM | protection from Ebola virus infections [5]: 100%

CCN1CC(CCN2CCOCC2)C(c2ccccc2)(c2ccccc2)C1=O (centres unmarked) [Doxapram]
activation of Mpro [6]: > 15%

Cc1cccc(C)c1OCC(=O)N[C@@H](Cc1ccccc1)[C@@H](O)C[C@H](Cc1ccccc1)NC(=O)[C@H](C(C)C)N1CCCNC1=O [Lopinavir]
IC50 ([7]; 50 nM Mpro, 10 µM Sub3, 20% DMSO, mean ± SE, triplicate): 486000 ± 2000 nM | Hill slope ([7]; four-parameter variable slope fit of the IC50 curve): 29.9 ± 2.4

Cc1c(O)cccc1C(=O)N[C@@H](CSc1ccccc1)[C@H](O)CN1C[C@H]2CCCC[C@H]2C[C@H]1C(=O)NC(C)(C)C [Nelfinavir]
EC50 [8]: 1000 nM

CN1CCN(CC(=O)N2c3ccccc3C(=O)Nc3cccnc32)CC1 [Pirenzepine]
activation of Mpro [6]: > 15%

CCOc1ccccc1OC(c1ccccc1)C1CNCCO1 (centres unmarked) [Reboxetine]
activation of Mpro [6]: > 15%

CCOC(=O)/C=C/[C@H](C[C@@H]1CCNC1=O)NC(=O)[C@@H](CC(=O)[C@@H](NC(=O)c1cc(C)on1)C(C)C)Cc1ccc(F)cc1 [Rupintrivir]
Hill slope [7]: 1.4 ± 0.2
